The text below walks through data of US12318484B2 (priority 2016, dated 2025).

This test has as its system IL-1B, IL-8, TLR7 and TLR8 mRNA. Type of test: cell-based, ferrets. The following applies: 100 μM, ferret whole blood.

Regarding CL075, the “IL-1B, IL-8, TLR7 and TLR8 mRNA” value is on record as “significant increases”.
